Source: patent US20200399632A1, “SENSOR SYSTEMS” (enEvolv, Inc., priority 2018, published 2020)

Legend:
[1] = test system: E. coli BW25113 Δptsl::kanR pSENSORGFP-PtsI sensor strain; experiment: GFP fluorescence of sensor cells encapsulated in droplets with naringenin (microscope); type: cell-based; settings: 500 μM naringenin with sensor cells; 33° C., 48 hours; FIG. 5d
Excerpt: FIGS. 4A-B establish co-culturing of producer cells and sensor cells as a viable strategy for screening. Sensor cells were engineered in an E. coli BW25113 Δptsl::kanR background, which is unable to grow on glucose as a sole carbon source. The glucose transporter ptsl and fluorescence reporter gfp were expressed co-cistronically under the control of a TtgR-regulated promoter on the plasmid pSENSORGFP-PtsI, such that growth and the magnitude of GFP signal are naringenin-dependent. […] Following incubation, the water-in-oil droplets were encapsulated in another aqueous phase, generating water-in-oil-in-water droplets, which were observed on a standard fluorescence activated cell sorter (FACS). […]
2E6 pNARnull, 2E6 pNAR^low, 2E6 pNARhigh, were co-cultured with the E. coli BW25113 Δptsl::kanR pSENSORGFP-PtsI sensor strain described in Example 3. […] Double emulsions were analyzed under the microscope prior to FACS analysis. […]

[2] = Diffusion between droplets: naringenin droplets co-incubated with sensor cell droplets; type: physicochemical; settings: droplets with 500 μM naringenin mixed with sensor cell droplets; 1% Ran Fluorosurfactant in HFE7500; FIG. 6
Procedure: FIG. 6 is an image showing fluorescence of two sets of droplet co-incubated for 24 hours. The first set of droplets contained 500 μM naringenin and the second set of droplets contained naringenin sensor cells. If diffusion was occurring between the droplets, the sensor cells would become fluorescent over the 24 hour period.
2E6 pNARnull, 2E6 pNAR^low, 2E6 pNARhigh, were co-cultured with the E. coli BW25113 Δptsl::kanR pSENSORGFP-PtsI sensor strain described in Example 3. The four cultures were grown overnight in LB medium, subdiluted 1 to 100 in minimal medium supplemented with the appropriate antibiotic and then grown into log phase. Once in log phase, the E. coli were rinsed 3× with 1× filtered M9 salts and then diluted to an OD600 of 1.0. The 2E6 strains were diluted to an OD600 of 0.01 to ensure that a single producer strain is present in each encapsulated droplet and the sensor cells were diluted to 0.1 to ensure that each droplet gets at least 5 sensor cells. Six sets of droplets were produced, (1) sensor cell only, (2) sensor cell with 500 μM naringenin, (3) 2E6 pNARhigh with sensor cell and 1 mM IPTG, (4) 2E6 pNARnull with sensor cell and 1 mM IPTG, (5), 2E6 pNARlow with sensor cell and 1 mM IPTG, and (6) naringenin only droplets. […] Double emulsions were analyzed under the microscope prior to FACS analysis. […]

TtgR = TtgR sensor GFP response of MAGE-engineered E. coli MG1655 mutants to exogenously applied naringenin; type: cell-based; settings: naringenin 0, 31, 63 or 125 μM; three MAGE-engineered E. coli MG1655 clones, medium-copy plasmid with TtgR and gfp
Excerpt: The three clones were transformed with a medium-copy plasmid harboring TtgR and gfp under the control of an engineered ttgAp promoter. […] No naringenin pathway enzymes were present during these experiments, eliminating any interference by endogenously produced naringenin. The variation was not resolved upon transferring the sensor system to the genome (not shown) or switching to a high-copy sensor plasmid (FIG. 2A).

## O=C1C[C@@H](c2ccc(O)cc2)Oc2cc(O)cc(O)c21 [naringenin]
[1]
  fluorescence of positive control droplets: very fluorescent
[2]
  diffusion between droplets: no diffusion between droplets
TtgR
  GFP expression induced in TtgR sensor strains: induced different levels of GFP expression
